Series [1] has as its target T1, Angiotensin-converting enzyme (Oryctolagus cuniculus) (UniProt P12822).
T1 sequence (whole entry): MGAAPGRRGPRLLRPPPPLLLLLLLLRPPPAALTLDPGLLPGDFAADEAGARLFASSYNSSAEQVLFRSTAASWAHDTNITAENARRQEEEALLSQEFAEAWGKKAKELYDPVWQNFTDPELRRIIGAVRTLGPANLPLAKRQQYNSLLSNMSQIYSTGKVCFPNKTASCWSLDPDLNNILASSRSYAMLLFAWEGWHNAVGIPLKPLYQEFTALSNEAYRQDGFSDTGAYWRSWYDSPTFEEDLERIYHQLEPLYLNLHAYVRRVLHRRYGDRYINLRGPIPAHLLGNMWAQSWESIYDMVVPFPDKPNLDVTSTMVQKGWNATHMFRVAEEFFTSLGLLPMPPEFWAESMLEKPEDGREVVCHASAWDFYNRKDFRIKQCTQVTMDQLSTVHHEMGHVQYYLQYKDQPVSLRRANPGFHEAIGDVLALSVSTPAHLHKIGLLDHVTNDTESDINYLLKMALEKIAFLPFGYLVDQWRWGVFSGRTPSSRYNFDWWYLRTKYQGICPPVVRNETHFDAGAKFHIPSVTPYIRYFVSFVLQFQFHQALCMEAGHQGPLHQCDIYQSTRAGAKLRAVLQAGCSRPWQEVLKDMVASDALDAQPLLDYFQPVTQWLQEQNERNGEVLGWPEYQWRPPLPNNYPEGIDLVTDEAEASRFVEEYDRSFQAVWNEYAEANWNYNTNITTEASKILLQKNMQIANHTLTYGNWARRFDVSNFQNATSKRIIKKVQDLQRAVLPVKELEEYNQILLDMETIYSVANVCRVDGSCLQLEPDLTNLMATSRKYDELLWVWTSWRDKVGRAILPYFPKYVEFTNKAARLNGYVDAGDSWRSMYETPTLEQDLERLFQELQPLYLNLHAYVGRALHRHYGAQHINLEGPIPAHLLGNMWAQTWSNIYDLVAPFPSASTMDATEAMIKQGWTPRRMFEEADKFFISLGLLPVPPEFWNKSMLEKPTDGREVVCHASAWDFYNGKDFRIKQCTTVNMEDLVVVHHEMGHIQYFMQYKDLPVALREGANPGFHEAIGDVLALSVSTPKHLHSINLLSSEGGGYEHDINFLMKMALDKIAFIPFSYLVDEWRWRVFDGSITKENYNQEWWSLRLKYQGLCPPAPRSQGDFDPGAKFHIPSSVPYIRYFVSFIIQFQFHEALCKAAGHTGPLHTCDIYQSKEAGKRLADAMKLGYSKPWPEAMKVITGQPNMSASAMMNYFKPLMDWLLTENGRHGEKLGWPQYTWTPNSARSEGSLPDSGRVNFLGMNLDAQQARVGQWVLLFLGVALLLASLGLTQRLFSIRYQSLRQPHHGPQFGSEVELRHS
In words: Inhibition of rabbit lung ACE assessed as hippuryl-histidyl-leucine hydrolysis at 1 uM after 30 mins by colorimetric method.

In series [2] the test system is ACE (rabbit lung). In words: Ratio of IC50 for HEK cells to IC50 for rabbit lung ACE. It counts as cell-based, HEK293. To be noted: read-out: Ratio IC50.
Series [3] deals with ACE (rabbit lung). In words: Ratio of IC50 for human A549 cells to IC50 for rabbit lung ACE. It is filed as cell-based. To be noted: read-out: Ratio IC50.
The target in series [4] is T2, Angiotensin-converting enzyme (Oryctolagus cuniculus, UniProt P12822).
T2 sequence (P12822 whole entry): T1 sequence (whole entry)
In words: Inhibition of rabbit lung ACE assessed as hippuryl-histidyl-leucine hydrolysis after 30 mins by colorimetric method.

pIC50: −log10 of the molar value. A value given as a limit tells only on which side of the number the result lay.

As to `CCCCc1nc(Cl)c(C(=O)N[C@H](C(=O)OC)[C@H](C)CC)n1C`, the inhibition in series [1] was 55%.

Take `CCCCc1nc(Cl)c(C(=O)N[C@@H](CC(C)C)C(=O)OC)n1C`: the inhibition in series [1] was 55%.

On to `CCCCc1nc(Cl)c(C(=O)NCC(=O)OC)n1C`, for which, in series [1], the inhibition was found to be 55%.

In the case of `CCCCc1nc(Cl)c(C(=O)N[C@@H](Cc2c[nH]c3ccccc23)C(=O)OC)n1C`, in series [1], the inhibition was more than 80%. Also, the selectivity ratio in series [2] and in series [3] was 1000 throughout. The pIC50 in series [4] was 6.27.

For the compound `CCCCc1nc(Cl)c(C(=O)N[C@@H](CO)C(=O)OC)n1C`, the inhibition in series [1] came to 55%.

On to `CCCCc1nc(Cl)c(C(=O)N[C@H](C(=O)OC)C(C)C)n1C`, for which, in series [1], the inhibition was found to be 55%.

In the case of `CCCCc1nc(Cl)c(C(=O)N[C@@H](CO)C(=O)O)n1C`, in series [1], the inhibition is 55%.

For the compound `CCCCc1nc(Cl)c(C(=O)N[C@@H](Cc2ccccc2)C(=O)O)n1C`, the inhibition in series [1] came to 55%. Moreover, the selectivity ratio in series [2] and in series [3] was 1000 in each case. Moreover, the pIC50 in series [4] was 7.00.

Consider `CCCCc1nc(Cl)c(C(=O)N[C@@H](Cc2c[nH]c3ccccc23)C(=O)O)n1C`, for which the inhibition in series [1] was more than 80%.

As to `CCCCc1nc(Cl)c(C(=O)N[C@@H](C)C(=O)OC)n1C`, the inhibition in series [1] was determined as 55%.

As for `CCCCc1nc(Cl)c(C(=O)N[C@H](C(=O)O)[C@H](C)CC)n1C`, the inhibition in series [1] is more than 80%. Also, the selectivity ratio in series [2] and in series [3] was 1000 each time. Also, in series [4], the pIC50 is 5.95.

As to `CCCCc1nc(Cl)c(C(=O)N[C@@H](CCSC)C(=O)OC)n1C`, the inhibition in series [1] was 55%.

For `CCCCc1nc(Cl)c(C(=O)N[C@@H](C)C(=O)O)n1C`, the inhibition in series [1] was 55%.

On to `CCCCc1nc(Cl)c(C(=O)N[C@@H](Cc2ccc(O)cc2)C(=O)O)n1C`, for which, in series [1], the inhibition was determined as 55%.

For the compound `CCCCc1nc(Cl)c(C(=O)N[C@@H](CC(C)C)C(=O)O)n1C`, the inhibition in series [1] was 55%.

For the compound `CCCCc1nc(Cl)c(C(=O)NCC(=O)O)n1C`, the inhibition in series [1] stood at 55%.

Regarding `NCCCC[C@H](N[C@@H](CCc1ccccc1)C(=O)O)C(=O)N1CCC[C@H]1C(=O)O` [LISINOPRIL ANHYDROUS], the pIC50 in series [4] is 6.50.

Turning to `CCCCc1nc(Cl)c(C(=O)N[C@H](C(=O)OC)[C@H](C)O)n1C`, in series [1], the inhibition is 55%.

As for `CCOC(=O)[C@H](CCc1ccccc1)N[C@H]1CCc2ccccc2N(CC(=O)O)C1=O` [BENAZEPRIL], the pIC50 in series [4] is 7.00.

In the case of `CCCCc1nc(Cl)c(C(=O)N[C@H](C(=O)O)[C@H](C)O)n1C`, in series [1], the inhibition turned out to be 55%.

Turning to `CCCCc1nc(Cl)c(C(=O)N[C@H](C(=O)O)C(C)C)n1C`, the inhibition in series [1] was found to be 55%.

Take `CCCCc1nc(Cl)c(C(=O)N[C@@H](Cc2ccc(O)cc2)C(=O)OC)n1C`: the inhibition in series [1] came out at 55%.

On to `CCCCc1nc(Cl)c(C(=O)N[C@@H](Cc2ccccc2)C(=O)OC)n1C`, for which the inhibition in series [1] is more than 80%. For the same compound, the selectivity ratio in series [2] and in series [3] was 1000 in each case. Besides, in series [4], the pIC50 was 6.19.

With `CCCCc1nc(Cl)c(C(=O)N[C@@H](CCSC)C(=O)O)n1C`, the inhibition in series [1] is more than 80%. Moreover, the selectivity ratio in series [2] and in series [3] was 1000 in each case. In addition, in series [4], the pIC50 was 6.18.

In general, inhibition refers to the share of the control response that was lost under treatment. What is called pIC50 is −log10 of the IC50, conventionally taken in molar units.

The values are drawn from ChEMBL document CHEMBL3585246, “Design, synthesis and evaluation of novel 2-butyl-4-chloroimidazole derived peptidomimetics as Angiotensin Converting Enzyme (ACE) inhibitors” (Bioorg Med Chem, 2015).
